According to BindingDB's records for patent US10981904 (Cancer Research Technology, 2021):

Biological target: T1, Glutaminase kidney isoform, mitochondrial [63-669] (Homo sapiens, UniProt O94925)
T1 sequence (O94925 whole entry): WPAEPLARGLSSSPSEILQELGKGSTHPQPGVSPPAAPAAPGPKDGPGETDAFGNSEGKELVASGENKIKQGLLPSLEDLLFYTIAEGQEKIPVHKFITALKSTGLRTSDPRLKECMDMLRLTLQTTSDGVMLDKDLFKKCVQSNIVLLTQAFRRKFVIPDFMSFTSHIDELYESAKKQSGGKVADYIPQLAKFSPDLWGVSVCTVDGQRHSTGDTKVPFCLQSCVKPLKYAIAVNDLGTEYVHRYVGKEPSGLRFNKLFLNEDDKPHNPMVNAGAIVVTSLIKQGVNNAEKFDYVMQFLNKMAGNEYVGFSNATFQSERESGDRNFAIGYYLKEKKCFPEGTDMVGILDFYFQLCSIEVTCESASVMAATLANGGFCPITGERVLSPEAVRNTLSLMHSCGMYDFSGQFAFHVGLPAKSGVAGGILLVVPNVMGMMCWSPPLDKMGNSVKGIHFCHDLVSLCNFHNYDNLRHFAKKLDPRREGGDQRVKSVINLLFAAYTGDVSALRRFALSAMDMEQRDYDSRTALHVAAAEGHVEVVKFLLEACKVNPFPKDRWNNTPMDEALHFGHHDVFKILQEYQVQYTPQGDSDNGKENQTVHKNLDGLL
Experiment: GLS Enzyme Potency Assay
Procedure: A Glutamate Oxidase/AmplexRed coupled assay was used to measure the ability of compounds to bind to and inhibit the activity of GLS1 in vitro. […] GLS1 was diluted to 2× working concentration and incubated at room temperature to allow the tetrameric/dimeric forms to reach steady state. Assay measurements were performed in buffer comprising 50 mM TRIS pH 7.8, 100 mM NaPO4, pH 7.8, 0.001% v/v Tween20. […] DMSO concentration was maintained at 2% by back filling with DMSO solution. […] 3 μL of 100 mM glutamine diluted in assay buffer was then added and the reaction incubated at room temperature for 60 minutes. […] An artefact version of the assay where the 6His tagged GLS protein and glutamine were replaced with assay buffer was also used to rule out non specific effects on the assay components.

Row | SMILES | IC50
1 | COC1CN(c2cc([C@H](OC)C(=O)Nc3nnc(N[C@@H]4CCN(c5cccnn5)C4)s3)ccc2F)C1 [US10981904, Example 7(b)] | 192 nM
2 | CO[C@H](C(=O)Nc1nnc(N[C@@H]2CCN(c3cccnn3)C2)s1)c1ccccc1C1COC1 [US10981904, Example 25] | 1840 nM
